Experimental data as given in PMC8815882, “Screening the pandemic response box identified benzimidazole carbamates, Olorofim and ravuconazole as promising drug candidates for the treatment of eumycetoma” (PLoS Neglected Tropical Diseases, 2022).
Like-named read-outs stand apart in the source and are kept apart here.

Test system: M. mycetomatis genome strain MM55
Experiment: CLSI M38-A2 based in vitro susceptibility screening (XTT or resazurin), growth at fixed concentration
Assay type: cell-based, Madurella mycetomatis
Settings: Madurella mycetomatis; for Percent fungal survival at 100 µM: read-out: Percentage survival at 100um, 100 uM A (second replicate column)
[1] = mean of three, M. mycetomatis MM55, read-out: Percentage survival at 25um, 25 uM mean
[2] = replicate A, M. mycetomatis MM55, read-out: Percentage survival at 25um, 25 um A
[3] = replicate B, M. mycetomatis MM55, read-out: Percentage survival at 25um, 25 uM B
[4] = replicate C, M. mycetomatis MM55, read-out: Percentage survival at 25um, 25 uM C
[5] = mean of three, M. mycetomatis MM55, read-out: Percentage survival at 100um, 100 uM mean
[6] = replicate 1, M. mycetomatis MM55, read-out: Percentage survival at 100um, 100 uM A (first replicate column)
[7] = replicate 2, M. mycetomatis MM55
[8] = replicate 3, M. mycetomatis MM55, read-out: Percentage survival at 100um, 100 uM A (third replicate column)
[9] = mean of replicates, read-out: Percentage survival at 25um, 25 uM mean
[10] = replicate A, read-out: Percentage survival at 25um, 25 um A
[11] = replicate B, read-out: Percentage survival at 25um, 25 uM B
[12] = replicate C, read-out: Percentage survival at 25um, 25 uM C
[13] = mean of replicates, read-out: Percentage survival at 100um, 100 uM mean
[14] = replicate 1, read-out: Percentage survival at 100um, 100 uM A
[15] = replicate 2, read-out: Percentage survival at 100um, 100 uM A
[16] = replicate 3, read-out: Percentage survival at 100um, 100 uM A
[17] = mean of three replicates, read-out: Percentage survival at 25um, 25 uM mean
[18] = mean of three replicates, read-out: Percentage survival at 100um, 100 uM mean
[19] = replicate 1, read-out: Percentage survival at 100um, 100 uM A (first replicate column)
[20] = replicate 3, read-out: Percentage survival at 100um, 100 uM A (third replicate column)
[21] = mean, read-out: Percentage survival at 25um, 25 uM mean
[22] = mean, read-out: Percentage survival at 100um, 100 uM mean
[23] = replicate (first column), read-out: Percentage survival at 100um, 100 uM A
[24] = replicate (second column), read-out: Percentage survival at 100um, 100 uM A
[25] = replicate (third column), read-out: Percentage survival at 100um, 100 uM A

CCCCCOc1ccc(/C=C2\Oc3c(ccc(O)c3O)C2=O)c(O)c1 [MMV1580851]
activity at 25 µM [1]: 102% | activity at 25 µM [2]: 93.6% | activity at 25 µM [3]: 82.3% | activity at 25 µM [4]: 129% | activity at 100 µM [5]: 90% | activity at 100 µM [6]: 82.6% | Percent fungal survival at 100 µM [7]: 98.4% | activity at 100 µM [8]: 89%

CC1CCc2c(N3CCC(O)CC3)c(F)cc3c(=O)c(C(=O)O)cn1c23 (stereo not drawn) [MMV637659]
activity at 25 µM [9]: 88.6% | activity at 25 µM [10]: 77.6% | activity at 25 µM [11]: 95.3% | activity at 25 µM [12]: 93% | activity at 100 µM [13]: 77.8% | activity at 100 µM [14]: 65.4% | activity at 100 µM [15]: 81.1% | activity at 100 µM [16]: 86.9%

COc1ccc(NC(=O)c2cc3ccccn3n2)cc1 [MMV374187]
activity at 25 µM [17]: 100% | activity at 25 µM [10]: 94.6% | activity at 25 µM [11]: 115% | activity at 25 µM [12]: 90.7% | activity at 100 µM [18]: 65.8% | activity at 100 µM [19]: 52% | Percent fungal survival at 100 µM (replicate 2): 60.6% | activity at 100 µM [20]: 84.9%

O=C1c2cccc3cccc(c23)C(=O)N1CC1CO1 (stereo not drawn) [MMV1634360]
activity at 25 µM [21]: 61% | activity at 25 µM [10]: 65.4% | activity at 25 µM [11]: 62.1% | activity at 25 µM [12]: 55.4% | activity at 100 µM [22]: 2.87% | activity at 100 µM [23]: -2.26% | activity at 100 µM [24]: 3.27% | activity at 100 µM [25]: 7.61%

O=C(CCc1ccc2c(c1)OCO2)NCc1ccc(-c2ccccc2F)cc1 [MMV1782110]
activity at 25 µM [21]: 78.7% | activity at 25 µM [10]: 102% | activity at 25 µM [11]: 62.1% | activity at 25 µM [12]: 71.9% | activity at 100 µM [22]: 77.4% | activity at 100 µM [23]: 79% | activity at 100 µM [24]: 73.6% | activity at 100 µM [25]: 79.5%

CN(C)[C@@H]1C(=O)C(C(N)=O)=C(O)[C@@]2(O)C(=O)C3=C(O)c4c(O)c(NC(=O)CN5CCCC5)cc(F)c4C[C@H]3C[C@@H]12 [MMV1578574]
activity at 25 µM [9]: 74.6% | activity at 25 µM [10]: 58% | activity at 25 µM [11]: 94% | activity at 25 µM [12]: 72% | activity at 100 µM [13]: 93% | activity at 100 µM [14]: 92.7% | activity at 100 µM [15]: 96.8% | activity at 100 µM [16]: 89.4%

CCc1ccc(C2CC(C(F)(F)F)n3ncc(C(=O)NCc4ccc(OC)cc4)c3N2)cc1 (stereo not drawn) [MMV831201]
activity at 25 µM [9]: 64.1% | activity at 25 µM [10]: 65% | activity at 25 µM [11]: 56.7% | activity at 25 µM [12]: 70.7% | activity at 100 µM [13]: 67.5% | activity at 100 µM [14]: 62% | activity at 100 µM [15]: 63% | activity at 100 µM [16]: 77.5%

CCCCCCC1c2ccc(O)cc2Oc2cc(O)ccc21 [MMV1593535]
activity at 25 µM [21]: 72.3% | activity at 25 µM [10]: 72.8% | activity at 25 µM [11]: 89.7% | activity at 25 µM [12]: 54.6% | activity at 100 µM [22]: 21.5% | activity at 100 µM [23]: 10.9% | activity at 100 µM [24]: 14.4% | activity at 100 µM [25]: 39.1%

C[C@@H](NC(=O)c1ccccc1-c1ccccc1)B(O)O [MMV1582493]
activity at 25 µM [21]: 84.3% | activity at 25 µM [10]: 92.1% | activity at 25 µM [11]: 87.2% | activity at 25 µM [12]: 73.6% | activity at 100 µM [22]: 83.3% | activity at 100 µM [23]: 92.5% | activity at 100 µM [24]: 73.6% | activity at 100 µM [25]: 83.9%

OB1OCc2c1ccc(Cl)c2F [MMV1782226]
activity at 25 µM [21]: 54.9% | activity at 25 µM [10]: 54.6% | activity at 25 µM [11]: 46.9% | activity at 25 µM [12]: 63.1% | activity at 100 µM [22]: 64.2% | activity at 100 µM [23]: 55.3% | activity at 100 µM [24]: 77.4% | activity at 100 µM [25]: 59.8%

CC(C)(C)OC(=O)NCc1ccc(C(=O)N[C@H]2CCOC2=O)cc1 [MMV1581547]
activity at 25 µM [1]: 87.5% | activity at 25 µM [2]: 95.2% | activity at 25 µM [3]: 90.1% | activity at 25 µM [4]: 77.3% | activity at 100 µM [5]: 113% | activity at 100 µM [6]: 94.9% | Percent fungal survival at 100 µM [7]: 156% | activity at 100 µM [8]: 89.2%

COc1ccccc1NC(=O)c1ccccc1Sc1ccc([N+](=O)[O-])cc1 [MMV1580484]
activity at 25 µM [17]: 65.2% | activity at 25 µM [10]: 65.9% | activity at 25 µM [11]: 69.7% | activity at 25 µM [12]: 60.2% | activity at 100 µM (first replicate column, read-out: Percentage survival at 100um, 100 uM A): 60.9% | activity at 100 µM [18]: 60.4% | activity at 100 µM (second replicate column, read-out: Percentage survival at 100um, 100 uM A): 56% | activity at 100 µM (third replicate column, read-out: Percentage survival at 100um, 100 uM A): 64.4%

CN1c2ccc(Cl)cc2N(c2ccccc2)C(=O)c2cn(Cc3ccc(CN4CCOCC4)cc3)nc21 [MMV1782222]
activity at 25 µM [9]: 61.1% | activity at 25 µM [10]: 58.9% | activity at 25 µM [11]: 64.9% | activity at 25 µM [12]: 59.6% | activity at 100 µM [13]: 60.2% | activity at 100 µM [19]: 52.1% | Percent fungal survival at 100 µM (replicate 2): 70.5% | activity at 100 µM [20]: 58.2%

C[C@H](NC(CC(=O)c1ccccc1C(F)(F)F)C(=O)O)c1ccccc1 (stereo partly drawn) [MMV1579778]
activity at 25 µM [17]: 93.5% | activity at 25 µM [10]: 98.1% | activity at 25 µM [11]: 92% | activity at 25 µM [12]: 90.5% | activity at 100 µM [18]: 87.3% | activity at 100 µM [19]: 91.1% | Percent fungal survival at 100 µM (replicate 2): 82.8% | activity at 100 µM [20]: 88.1%

COc1ccc(SC(=O)N[C@H](CCC(=O)O)C(=O)O)cc1 [MMV1580846]
activity at 25 µM [9]: 85% | activity at 25 µM [10]: 78.8% | activity at 25 µM [11]: 91.4% | activity at 25 µM [12]: 84.8% | activity at 100 µM [13]: 45.7% | activity at 100 µM [14]: -2.83% | activity at 100 µM [15]: 55.8% | activity at 100 µM [16]: 84.3%

Cc1c(OCC(F)(F)F)ccnc1C[S+]([O-])c1nc2ccccc2[nH]1 (stereo not drawn) [MMV001438]
activity at 25 µM [17]: 95.7% | activity at 25 µM [10]: 79.3% | activity at 25 µM [11]: 123% | activity at 25 µM [12]: 84.8% | activity at 100 µM [18]: 55.3% | activity at 100 µM [19]: 41.9% | Percent fungal survival at 100 µM (replicate 2): 52.1% | activity at 100 µM [20]: 71.8%

COc1ccc2sc3c(c2c1)NC(C)CNC3=O (stereo not drawn) [MMV1782115]
activity at 25 µM [17]: 53.1% | activity at 25 µM [10]: 57.6% | activity at 25 µM [11]: 74.6% | activity at 25 µM [12]: 27.1% | activity at 100 µM [18]: -0.834% | activity at 100 µM [19]: -3.17% | Percent fungal survival at 100 µM (replicate 2): -0.401% | activity at 100 µM [20]: 1.07%

CCc1nc2ccc(Cl)cn2c1C(=O)NCc1ccc(N2CCC(c3ccc(OC(F)(F)F)cc3)CC2)cc1 [MMV687696]
activity at 25 µM [17]: 93.6% | activity at 25 µM [10]: 95% | activity at 25 µM [11]: 93.8% | activity at 25 µM [12]: 91.9% | activity at 100 µM [18]: 84.8% | activity at 100 µM [19]: 87.8% | Percent fungal survival at 100 µM (replicate 2): 86.4% | activity at 100 µM [20]: 80.3%

O=c1ccc2ncc(=O)n3c2n1CC3CN1CCC(NCc2cc3c(cn2)OCCC3)CC1 (stereo not drawn) [MMV1578568]
activity at 25 µM [21]: 66.7% | activity at 25 µM [10]: 82.6% | activity at 25 µM [11]: 42.3% | activity at 25 µM [12]: 75.2% | activity at 100 µM [22]: 63.3% | activity at 100 µM [23]: 26.3% | activity at 100 µM [24]: 74.3% | activity at 100 µM [25]: 89.2%

O=C(O)C[C@H]1CC[C@H](c2ccc(-c3ccc(Nc4ccc(C(F)(F)F)nc4)cn3)cc2)CC1 [MMV1580498]
activity at 25 µM (mean of replicates, MM55, read-out: Percentage survival at 25um, 25 uM mean): 72.2% | activity at 25 µM (replicate A, MM55, read-out: Percentage survival at 25um, 25 um A): 72.4% | activity at 25 µM (replicate B, MM55, read-out: Percentage survival at 25um, 25 uM B): 58.9% | activity at 25 µM (replicate C, MM55, read-out: Percentage survival at 25um, 25 uM C): 85.2% | activity at 100 µM (mean of replicates, MM55, read-out: Percentage survival at 100um, 100 uM mean): 80.6% | activity at 100 µM (replicate 1, MM55, read-out: Percentage survival at 100um, 100 uM A): 82.3% | activity at 100 µM (replicate 2, MM55, read-out: Percentage survival at 100um, 100 uM A): 88.6% | activity at 100 µM (replicate 3, MM55, read-out: Percentage survival at 100um, 100 uM A): 70.8%

C(=C\c1nc2ccccc2[nH]1)/c1ccc2c(c1)OCO2 [MMV1582495]
activity at 25 µM [1]: 76.5% | activity at 25 µM [2]: 78.1% | activity at 25 µM [3]: 81.8% | activity at 25 µM [4]: 69.8% | activity at 100 µM [5]: 66.2% | activity at 100 µM [6]: 59.7% | Percent fungal survival at 100 µM [7]: 74.5% | activity at 100 µM [8]: 64.2%
